Source: ChEMBL document CHEMBL4665682, “Fragment Linking Strategies for Structure-Based Drug Design” (J Med Chem, 2020)

How the values were obtained:
[1] = Antagonist activity at IL-2/IL-2RA (unknown origin) assessed as reduction in IL-2/IL-2RA protein-protein interaction by scintillation proximity assay; parameters: species or system Homo sapiens
[2] = Binding affinity to 23S rRNA U1061A mutant (unknown origin) by mass spectrometry
Heat shock protein HSP90 = Heat shock protein HSP90 (Homo sapiens, UniProt P07900+P08238); test: Inhibition of HSP90 (unknown origin) by confocal fluorescence-based biochemical assay; type: protein assay
[3] = Inhibition of avidin (unknown origin)
[4] = Inhibition of Mycobacterium tuberculosis EthR assessed as reduction in protein interaction with immobilized ethA promoter DNA by SPR assay
Histone deacetylase 8 = target: T1, Histone deacetylase 8 (Homo sapiens, UniProt Q9BY41); test: Inhibition of HDAC8 (unknown origin) using acetylated lysine as substrate incubated for 20 mins by Lineweaver-Burk double-reciprocal plot analysis
T1 sequence (Q9BY41 whole entry): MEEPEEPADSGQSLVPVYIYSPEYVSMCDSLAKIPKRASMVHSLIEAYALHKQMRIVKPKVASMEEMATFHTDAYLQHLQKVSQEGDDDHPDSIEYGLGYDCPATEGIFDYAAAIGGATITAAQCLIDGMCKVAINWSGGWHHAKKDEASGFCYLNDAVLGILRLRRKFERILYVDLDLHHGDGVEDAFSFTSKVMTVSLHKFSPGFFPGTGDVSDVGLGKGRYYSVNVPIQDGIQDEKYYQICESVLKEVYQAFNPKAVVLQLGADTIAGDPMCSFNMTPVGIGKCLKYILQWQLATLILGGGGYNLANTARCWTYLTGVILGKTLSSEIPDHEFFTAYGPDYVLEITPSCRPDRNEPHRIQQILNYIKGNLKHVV

[5] = Binding affinity to FKBP (unknown origin) by 15N-HSQC-NMR spectroscopy; parameters: species or system Homo sapiens
CDK2/Cyclin A2 = CDK2/Cyclin A2 (Homo sapiens, UniProt P24941); test: Inhibition of CDK2/Cyclin A (unknown origin) using histone H1 as substrate by scintillation counting method; type: protein-complex assay
Bcl-2-like protein 1 = Bcl-2-like protein 1 (Homo sapiens, UniProt Q07817)
Chain of Bcl-2-like protein 1 (Q07817 whole entry): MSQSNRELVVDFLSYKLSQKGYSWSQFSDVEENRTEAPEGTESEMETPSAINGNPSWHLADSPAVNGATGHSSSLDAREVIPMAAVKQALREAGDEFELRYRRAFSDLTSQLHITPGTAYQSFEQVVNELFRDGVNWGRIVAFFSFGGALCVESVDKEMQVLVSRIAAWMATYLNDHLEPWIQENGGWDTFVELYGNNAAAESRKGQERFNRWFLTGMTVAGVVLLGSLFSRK
Description: Inhibition of FITC-labeled Bak BH3 peptide binding to His6-tagged GST-fused Bcl-xL (unknown origin) expressed in Escherichia coli BL21 preincubated for 10 mins followed by Bak BH3 peptide addition and measured after 30 mins by fluorescence polarization-based competitive binding assay

[6] = Inhibition of C-terminal His6-tagged human CypD K133I mutant expressed in Escherichia coli BL21(DE3) using Suc-Ala-Ala-Cis-Pro-Phe-pNA as substrate by spectrophotometric analysis
[7] = target: Peptidyl-prolyl cis-trans isomerase A (Homo sapiens, UniProt P62937)
Chain of Peptidyl-prolyl cis-trans isomerase A (P62937 whole entry): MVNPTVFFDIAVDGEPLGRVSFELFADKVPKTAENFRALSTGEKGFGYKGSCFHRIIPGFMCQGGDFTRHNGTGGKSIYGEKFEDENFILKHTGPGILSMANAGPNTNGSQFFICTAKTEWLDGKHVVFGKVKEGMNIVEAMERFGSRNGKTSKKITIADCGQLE

[8] = target: Peptidyl-prolyl cis-trans isomerase B (Homo sapiens, UniProt P23284); test: Inhibition of C-terminal His6-tagged CypB (unknown origin) expressed in Escherichia coli C41(DE3) using Suc-Ala-Ala-Cis-Pro-Phe-pNA as substrate by spectrophotometric analysis
Chain of Peptidyl-prolyl cis-trans isomerase B (P23284 whole entry): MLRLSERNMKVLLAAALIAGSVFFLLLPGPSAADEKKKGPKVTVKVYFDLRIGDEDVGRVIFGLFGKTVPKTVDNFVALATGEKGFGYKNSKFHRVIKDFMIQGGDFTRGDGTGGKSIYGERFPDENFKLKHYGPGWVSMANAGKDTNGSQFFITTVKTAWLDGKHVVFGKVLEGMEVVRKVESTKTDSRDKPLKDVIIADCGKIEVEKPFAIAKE

Chitinase B = target: T2, Chitinase B (Serratia marcescens, UniProt P11797); test: Inhibition of Serratia marcescens chitinase B
T2 sequence (P11797 whole entry): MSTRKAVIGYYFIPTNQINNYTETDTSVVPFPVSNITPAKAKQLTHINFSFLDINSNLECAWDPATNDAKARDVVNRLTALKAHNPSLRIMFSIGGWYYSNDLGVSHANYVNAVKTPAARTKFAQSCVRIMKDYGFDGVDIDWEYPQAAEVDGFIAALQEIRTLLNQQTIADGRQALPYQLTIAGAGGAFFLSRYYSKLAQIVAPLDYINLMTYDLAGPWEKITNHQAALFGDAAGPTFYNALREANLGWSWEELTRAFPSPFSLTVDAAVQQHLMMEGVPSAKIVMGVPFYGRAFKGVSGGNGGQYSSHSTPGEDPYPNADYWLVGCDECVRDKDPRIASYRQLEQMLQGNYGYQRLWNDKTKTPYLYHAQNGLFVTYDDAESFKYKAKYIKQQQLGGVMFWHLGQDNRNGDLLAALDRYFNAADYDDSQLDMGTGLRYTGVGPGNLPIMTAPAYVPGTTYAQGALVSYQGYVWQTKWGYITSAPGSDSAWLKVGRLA

[9] = Binding affinity to human E-selectin/IgG expressed in CHO-K1 cells by surface plasmon resonance
[10] = Binding affinity to His6-tagged Mycobacterium tuberculosis pantothenate synthetase expressed in Escherichia coli C41(DE3) measured over 30 mins by isothermal titration calorimetry
[11] = target: Proto-oncogene tyrosine-protein kinase Src (Homo sapiens, UniProt P12931); test: Inhibition of c-Src (unknown origin) using biotin-KVEKIGEGTYGVVYK as substrate by ELISA
Chain of Proto-oncogene tyrosine-protein kinase Src (P12931 2-536 limits assumed): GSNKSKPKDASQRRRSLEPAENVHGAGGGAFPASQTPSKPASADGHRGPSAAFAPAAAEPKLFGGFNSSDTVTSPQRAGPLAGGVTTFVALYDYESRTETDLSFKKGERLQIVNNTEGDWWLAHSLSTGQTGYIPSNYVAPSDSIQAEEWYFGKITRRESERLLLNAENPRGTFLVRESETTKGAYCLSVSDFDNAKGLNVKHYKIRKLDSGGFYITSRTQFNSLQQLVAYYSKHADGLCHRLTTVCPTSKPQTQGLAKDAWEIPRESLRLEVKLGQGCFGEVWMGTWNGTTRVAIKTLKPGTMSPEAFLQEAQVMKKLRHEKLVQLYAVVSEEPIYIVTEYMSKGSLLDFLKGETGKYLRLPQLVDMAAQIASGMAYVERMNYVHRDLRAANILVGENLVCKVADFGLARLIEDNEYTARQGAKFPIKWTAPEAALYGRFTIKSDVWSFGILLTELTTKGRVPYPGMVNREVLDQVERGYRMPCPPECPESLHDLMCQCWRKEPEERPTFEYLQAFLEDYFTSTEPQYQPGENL

CC(C)C[C@@H](N=C(N)N)C(=O)NCC(=O)N1CCC(c2cc(-c3cccc(Cl)c3Cl)nn2C)CC1
IC50 [1]: 3 µM

NCC[C@@H](NC(=O)c1ccco1)C(=O)N1CCNCC1
Kd [2]: > 100 µM

NCC[C@@H](NC(=O)c1ccc(-c2cccc(NC(=O)c3ccc4nc(O)c(O)nc4c3)c2)o1)C(=O)N1CCNCC1
Kd [2]: 6.5 µM

O=C(O)c1ccc2nc(O)c(O)nc2c1
Kd [2]: > 100 µM

COC(=O)c1c(C)n[nH]c1-c1ccco1
IC50 (Heat shock protein HSP90): 1000 µM

C[C@@H]1NC(=O)N[C@@H]1CCCCCC(=O)O
Ki [3]: 4.1e-07 µM

O=C(CCc1ccccc1)N1CCCC1
IC50 [4]: 350 µM

[N-]=[N+]=NCC12CC3CC(CC(C3)C1)C2
IC50 (Histone deacetylase 8): > 1000 µM

COC(=O)[C@@H]1CCCCN1C(=O)C(=O)c1cc(OC)c(OC)c(OC)c1
Kd [5]: 2 µM

O=C1Nc2ccc(Cl)cc2C1=O
IC50 (CDK2/Cyclin A2): > 1000 µM

O=C(Nc1ccc(O)cc1)c1ccc(O)cc1
Kd [5]: 100 µM

CC1(C)CCN(c2ccc(C(=O)NS(=O)(=O)c3ccc(NCCSc4ccccc4)c([N+](=O)[O-])c3)cc2)CC1
IC50 (Bcl-2-like protein 1): 0.0788 µM

O=C(CCC1CCCC1)N1CCCC1
IC50 [4]: 280 µM

CSc1ccccc1C1CCCN1C(=O)C(NC(=O)NCc1ccc(N)cc1)c1ccccc1 (stereo not drawn)
IC50 [6]: 0.2 µM
IC50 [7]: 0.1 µM
IC50 [8]: 0.08 µM

CC(C)C[C@@H](NC(=N)N)C(=O)NCC(=O)N1CCC(c2cc(-c3ccc(OCc4ccc(C(=O)O)o4)c(Cl)c3Cl)nn2C)CC1
IC50 [1]: 0.06 µM

C#CCO/N=C/c1ccnc2ccccc12
IC50 (Chitinase B): > 100 µM

O=CN1CCCC1
IC50 [6]: > 5000 µM
IC50 [7]: > 5000 µM
IC50 [8]: > 5000 µM

[N-]=[N+]=NS(=O)(=O)c1ccc(NCCSc2ccccc2)c([N+](=O)[O-])c1
IC50 (Bcl-2-like protein 1): > 100 µM

O=C(NO)c1ccc(-c2cn(CC34CC5CC(CC(C5)C3)C4)nn2)s1
IC50 (Histone deacetylase 8): 4 µM

CC1(C)CCN(c2ccc(C(=O)S)cc2)CC1
IC50 (Bcl-2-like protein 1): > 100 µM

CNC(=O)NC(=N)NCCC[C@H](NC(=O)CN=[N+]=[N-])C(=O)N(Cc1ccccc1)Cc1ccccc1
IC50 (Chitinase B): 0.58 µM

C[C@H]1CNC(=O)N1
Ki [3]: 34 µM

O=C(NO)c1ccc(-c2cnnn2CC23CC4CC(CC(C4)C2)C3)s1
IC50 (Histone deacetylase 8): 0.51 µM

COC(=O)[C@H]1C[C@H](O[C@@H]2O[C@H](CO)[C@H](O)[C@H](O[C@@H](CC3CCCCC3)C(=O)O)[C@H]2OC(=O)c2ccccc2)[C@H](O[C@@H]2O[C@@H](C)[C@@H](O)[C@@H](O)[C@@H]2O)[C@@H](C)C1
Kd [9]: 1.9 µM

COc1ccc2c(ccn2CC(=O)O)c1
Kd [10]: 500 µM

C#Cc1ccc(C(=O)NO)s1
IC50 (Histone deacetylase 8): 1 µM

CCn1c2ccccc2c2cc(/C=N/OC)ccc21
IC50 [11]: 40 µM

CCn1c2ccccc2c2cc(/C=N/OCCO/N=C/c3ccc(O)c(O)c3)ccc21
IC50 [11]: 0.064 µM

C[C@@H]1O[C@@H](O[C@H]2[C@@H](O[C@@H]3O[C@H](CO)[C@H](O)[C@H](O[C@@H](CC4CCCCC4)C(=O)O)[C@H]3OC(=O)c3ccccc3)C[C@H](C(=O)NCCCc3cn(CCCn4ccc5cc([N+](=O)[O-])ccc54)nn3)C[C@@H]2C)[C@@H](O)[C@H](O)[C@@H]1O
Kd [9]: 0.03 µM

O=C(CCc1ccccc1)N1CC[C@@H](SS[C@@H]2CCN(C(=O)CCc3ccccc3)C2)C1
IC50 [4]: 0.97 µM

NNc1ccc(S(N)(=O)=O)cc1
IC50 (CDK2/Cyclin A2): > 1000 µM

O=C(O)c1cc2ccccc2o1
Kd [10]: 1000 µM

CN(C)c1ncnc2nc[nH]c12 [DIMETHYLADENINE]
IC50 (Heat shock protein HSP90): 1500 µM

CCCCCC(=O)O [HEXANOATE]
Ki [3]: 260 µM
